Test [1] concerns Tyk2 kinase activity on STAT4. Nature of the test: pSTAT4 cell assay (MSD, NK92 cells). The class given is cell-based. The following applies: compounds 1 hr, stimulated 15 minutes. A digest of the protocol:
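Serum-starved NK92 cells, which natively express Tyk2 and STAT4, were pretreated for 1 h with a 10-point 4-fold dilution series from 10 μM. They were then stimulated with 30 ng/mL IL2 for 15 min. Phospho-STAT in lysates was quantified by MSD with anti-STAT4 antibodies, and IC50 was obtained from 4-parameter logistic fits.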

The target of another test is T1, JH2 domain of human Tyk2 (Homo sapiens, UniProt P29597).
T1 construct: 10×His-tagged TYK2 JH2 domain (amino acid 575-876)
Description: JH2 biochemical assay (TR-FRET probe displacement). The class given is binding. To be noted: JH2 biochemical assay. Put shortly:
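10×His-tagged human TYK2 JH2 (aa 575-876, 2 nM) incubated 60 min with 2 nM fluorescent probe, 0.1 nM Tb anti-His antibody and compound (10-point 3-fold series from […] top). TR-FRET 520/495 nm ratio, falling with probe displacement, normalized and fitted to a 4-parameter logistic for IC50.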

Each structure is given as a SMILES string. pIC50: −log10 of the molar value. Where a name gives a salt, the structure may show the parent alone.

Experimental findings from US20260258032A1, “TYROSINE KINASE 2 INHIBITORS AND USES THEREOF” (BIOGEN MA INC., priority 2022, published 2026) are described below.

By pIC50 is commonly meant −log10 of the IC50, conventionally taken in molar units.

T1 sequence (P29597 575-876): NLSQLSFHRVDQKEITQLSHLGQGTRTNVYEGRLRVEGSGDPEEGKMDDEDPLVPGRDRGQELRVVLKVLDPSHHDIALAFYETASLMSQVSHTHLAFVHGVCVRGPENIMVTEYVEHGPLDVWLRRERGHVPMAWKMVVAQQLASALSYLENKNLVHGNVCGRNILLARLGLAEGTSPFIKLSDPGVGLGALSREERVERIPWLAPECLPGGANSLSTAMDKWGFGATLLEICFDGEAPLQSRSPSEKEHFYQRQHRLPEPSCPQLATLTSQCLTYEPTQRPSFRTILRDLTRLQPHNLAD

Take `CC(=O)Nc1cc2c(cn1)C1(CC1)CN2c1cc(C)cc(N2CCC(O)(C(F)(F)F)C2)n1` (centres unmarked) [Example 186, N-(1′-(6-(3-hydroxy-3-(trifluoromethyl)pyrrolidin-1-yl)-4-methylpyridin-2-yl)-1′,2′-dihydrospiro[cyclopropane-1,3′-pyrrolo[3,2-c]pyridin]-6′-yl)acetamide]: the values for the negative-log IC50 (pIC50) (in test [1]; on JH2 domain of human Tyk2) were at most 6.00 and 6.00 to 7.00, respectively.
In the case of `CC(=O)Nc1cc2c(cn1)C1(CC1)CN2c1cc(C)cc(N2CC(O)C(O)C2)n1` (centres unmarked) [Example 187, N-(1′-(6-(3,4-dihydroxypyrrolidin-1-yl)-4-methylpyridin-2-yl)-1′,2′-dihydrospiro[cyclopropane-1,3′-pyrrolo[3,2-c]pyridin]-6′-yl)acetamide], the negative logarithm of the IC50 (pIC50) is at most 6.00 in test [1] and 6.00 to 7.00 on JH2 domain of human Tyk2.
`COC1CCCN(c2cc(C)cc(N3CC4(CC4)c4cnc(NC(C)=O)cc43)n2)C1` (centres unmarked) [Example 188, N-(1′-(6-(3-methoxypiperidin-1-yl)-4-methylpyridin-2-yl)-1′,2′-dihydrospiro[cyclopropane-1,3′-pyrrolo[3,2-c]pyridin]-6′-yl)acetamide]: the pIC50 in test [1] is at most 6.00; on JH2 domain of human Tyk2 it was 6.00 to 7.00.
For `CC(=O)Nc1cc2c(cn1)C1(CC1)CN2c1cc(C)cc(N2CCC(O)C2)n1` (centres unmarked) [Example 189, N-(1′-(6-(3-hydroxypyrrolidin-1-yl)-4-methylpyridin-2-yl)-1′,2′-dihydrospiro[cyclopropane-1,3′-pyrrolo[3,2-c]pyridin]-6′-yl)acetamide] the same measures were at most 6.00 and 7.00 to 8.00.
`CC(=O)Nc1cc2c(cn1)C1(CC1)CN2c1cc(C)cc(N(C)C)n1` [Example 190, N-(1′-(6-(dimethylamino)-4-methylpyridin-2-yl)-1′,2′-dihydrospiro[cyclopropane-1,3′-pyrrolo[3,2-c]pyridin]-6′-yl)acetamide]: the negative logarithm of the IC50 (pIC50) in test [1] is at most 6.00; on JH2 domain of human Tyk2, 7.00 to 8.00.
For `COCCNc1cc(C)cc(N2CC3(CC3)c3cnc(NC(C)=O)cc32)n1` [Example 191, N-(1′-(6-((2-methoxyethyl)amino)-4-methylpyridin-2-yl)-1′,2′-dihydrospiro[cyclopropane-1,3′-pyrrolo[3,2-c]pyridin]-6′-yl)acetamide] the same measures were at most 6.00 and 6.00 to 7.00.
For `CC(=O)Nc1cc2c(cn1)C1(CC1)CN2c1cc(C)cc(N2CCC(N(C)C)C2)n1` (centres unmarked) [Example 192, N-(1′-(6-(3-(dimethylamino)pyrrolidin-1-yl)-4-methylpyridin-2-yl)-1′,2′-dihydrospiro[cyclopropane-1,3′-pyrrolo[3,2-c]pyridin]-6′-yl)acetamide trifluoroacetate], the results for the negative-log IC50 (pIC50) (in test [1]; at JH2 domain of human Tyk2) were at most 6.00 and 6.00 to 7.00, respectively.
For `CC(=O)Nc1cc2c(cn1)C1(CC1)CN2c1cc(C)cc(N2CC(O)C2)n1` [Example 193, N-(1′-(6-(3-hydroxyazetidin-1-yl)-4-methylpyridin-2-yl)-1′,2′-dihydrospiro[cyclopropane-1,3′-pyrrolo[3,2-c]pyridin]-6′-yl)acetamide], the pIC50 is at most 6.00 in test [1] and 7.00 to 8.00 at JH2 domain of human Tyk2.
For `CC(=O)Nc1cc2c(cn1)C1(CC1)CN2c1cc(C)cc(N2CC(C#N)C2)n1` [Example 194, N-(1′-(6-(3-cyanoazetidin-1-yl)-4-methylpyridin-2-yl)-1′,2′-dihydrospiro[cyclopropane-1,3′-pyrrolo[3,2-c]pyridin]-6′-yl)acetamide] the same measures were at most 6.00 and at least 8.00.
In the case of `CC(=O)Nc1cc2c(cn1)C1(CC1)CN2c1cc(C)cc(N2CC(F)C2)n1` [Example 195, N-(1′-(6-(3-fluoroazetidin-1-yl)-4-methylpyridin-2-yl)-1′,2′-dihydrospiro[cyclopropane-1,3′-pyrrolo[3,2-c]pyridin]-6′-yl)acetamide], the negative logarithm of the IC50 (pIC50) in test [1] is at most 6.00; on JH2 domain of human Tyk2 it was 7.00 to 8.00.
